Literature values as cited in patent publication US11291679B1, “Injectable, infusable, instillable ivermectin adjuvant for cancer therapies” (MOUNTAIN VALLEY MD INC., priority 2021, dated 2022).

Molecule	variability of cmax in blood plasma levels (blood plasma)	variation across the concentrations in the tumor environment (tumor environment) [fold]	immunogenic cancer cell death and T cell infiltration (breast tumors)	efficacy in vivo (limiting tumor growth) (breast tumors; single agent or combination, synergy p=0.03)
CCC(C)n1ncn(-c2ccc(N3CCN(c4ccc(OCC5COC(Cn6cncn6)(c6ccc(Cl)cc6Cl)O5)cc4)CC3)cc2)c1=O (stereo not shown) [itraconazole]	4-5 fold	~15	–	–
ivermectin	–	–	induces immunogenic cancer cell death (ICD) and robust T cell infiltration into breast tumors	neither agent alone showed efficacy in vivo
